EP2118065B1, “Substituted 1H-benz[de]isoquinoline-1,3-diones” (priority 2007, dated 2008)

Legend:
MOLT-4 cells [1] = assay: Annexin V-FITC/PI flow cytometric analysis of apoptosis; assay type: cell-based, Human; conditions: 6 hrs
Description: Events of apoptosis were analyzed using Annexin V-FITC Apoptosis Detection Kit (A 2214 Sigma Aldrich, USA). Human leukemia Cells (MOLT-4, 1x10^6 cells/ml) in 6-well plate were treated with Compound 3f (3 and 5µg/ml), camptothecin (5µM) and incubated for 6 hrs. After incubation, the cells were centrifuged, rinsed with PBS twice and re-suspended in binding buffer (10 mM HEPES/NaOH, pH 7.5 containing 0.14M NaCl and 25 mM CaCl2). An aliquot (500 µl) of suspension was stained with of Annexin V-FITC (5 µl) and Propidium Iodide (10 µl). The cells were stored for 10 minutes at room temperature in the dark and then analyzed by BD-LSR flow cytometer (Becton Dickinson, USA) at two wavelengths to measure fluorescence for of Annexin V & PI binding at 515 and 639 nm.

HL-60 cells = assay: as above; assay type: cell-based, human; conditions: 24 h
Description: Induction of apoptosis in vitro by Compound 3b and 3f was further determined in HL-60 cells by flow cytometric assay using an Annexin V-FITC Apoptosis Detection Kit (BD Biosciences Pharmingen, San Diego, USA). Camptothecin was included in the study for comparison. Exponentially growing HL-60 cells in complete RPMI-1640 media (100 µl of 5×10^6) were plated in six well plates. 10 µl of each Compound in DMSO (5 and 10 µM concentrations) was added to the wells followed by the addition of required media (total volume 1ml). Plates were incubated at 37°C for 24 h. The cells were centrifuged at room temperature at 1500 rpm for 5 min. The pellet was washed twice with cold PBS and was re-suspended in the binding buffer (1X, 100µl) provided in the Kit. The cells were stained with Annexin V-FITC (5 µl) and Propidium Iodide [PI] (5µl) and incubated for 15 min in the dark at 25°C. Next 400µl of binding buffer was added to each tube and analyzed on a FACScan flow cytometer (Becton Dickinson, Mountainview, CA) using Cell Quest software. Cells stained with both Annexin-V-FITC and PI, containing DMSO as vehicle was used as stained control. Cells that were annexin^+ /Pr [Lower right quadrant (LR)] and annexin^+/PI^+ [Upper right quadrant (UR)] were considered as early apoptotic and late apoptotic respectively.

S-180 cells = assay: 3H-thymidine and 3H-uridine incorporation in vitro (DNA and RNA synthesis)
MOLT-4 cells [2] = assay: Flow cytometric DNA cell cycle analysis (sub-G1 fraction); assay type: cell-based, Human; conditions: 24 hr
Description: Effect of DNA content by cell cycle phase distribution was assessed using MOLT-4 cells. […] The incubation period was 3 hrs in case of camptothecin and 24 hrs. in rest of the treatments. The cells were then washed twice with ice-cold PBS, harvested, fixed with ice-cold PBS in 70% ethanol, and stored at -20 °C for 30 min. After fixation, the cells were incubated with RNase A (0.1 mg/ml) at 37°C for 30 min, stained with propidium iodide (50 µg/ml) for 30 min on ice in dark, and then measured for DNA content using BD-LSR Flow cytometer (Becton Dickinson, USA) equipped with electronic doublet, discrimination capability using blue (488nm) excitation from argon laser. Data were collected in list mode on 10,000 events for FL2-A vs. FL2-W and analyzed using Mod Fit 2.0 software (Fig 4). […] The sub-G1 fractions for control and camptothecin were 0.64 (Fig. 4A) and 11.92 % (Fig. 4B).

HL-60 human leukemia = assay: MTT in vitro cytotoxicity; conditions: Homo sapiens, HL-60, 96 h, read-out: IC50 value Leukemia HL-60
MOLT-4 cells [3] = assay: Light and transmission electron microscopy of apoptosis; assay type: cell-based, Human
Description: Cell culture and treatment: Human T lymphoblast; acute lymphoblastic leukemia line MOLT-4 was procured from NCCS, Pune, India. The cells were cultured in RPMI-1640 medium supplemented with 10% FCS, 100 units penicillin and 100 µg streptomycin per ml. Cells were grown in CO2 incubator (SHEL-LAB, USA) at 37° C, 90% humidity and 5% CO2 gas environment and were treated during sub-confluent stage with Compound 3f dissolved in DMSO at the concentration of 1, 5 and 10µM while control cells received only the vehicle (DMSO < 0.5%).
Light and Transmission Electron Microscopy: MOLT-4 control, Compound 3f treated cells at different time intervals were washed in phosphate buffered saline, centrifuged at 1500 rpm for ten minutes and the pellets were divided into 1mm^3 pieces and fixed immediately in 2.5% glutaraldehyde in 0.1M phosphate buffer (pH 7.2) for 2 hr at 4°C, post-fixed with 1% OsO4 in the same buffer for 2 hr, dehydrated with acetone, cleared in propylene oxide and embedded in Epon-812^6 [Hayat, M. A. (1981) Principles and Techniques of Electron Microscopy. Biological Applications Vol. 1. Edward Arnold Publishers, London, U.K.] Semithin (1µm) sections were cut, stained with toluidine blue and studied under Olympus Research Microscope (VANOX). The photography was done using Olympus Digital Camera (C4000).
Ultrathin sections of silver colour (60-90 nm) were cut on a LKB ultramicrotome (Ultrotome-IV, mounted on copper grids and stained with uranyl acetate and lead citrate. The sections were viewed and photographed in a JEOL-100CXII electron microscope at 60 kV.
Detection of apoptosis in tissue sections. Cell Tissue Res. 301: 19-31] at different time intervals to study the mechanism of cell death. […] Compound 3f treated MOLT-4 cells, the condensation of the nuclear material, with a marked accumulation of densely stained chromatin was seen. In majority of the treated cells the chromatin was seen typically at the edge of the nucleus. This was accompanied by cell shrinkage and cytoplasmic vacuoles. The disintegration of the nucleus into smaller fragments was also seen (Fig. 7B). […]

[4] = test system: Ehrlich ascites carcinoma (EAC); assay: In vivo anticancer activity: increase in median survival time; set-up: species or system Swiss albino male mice; conditions: 60 mg/kg i.p., 7 injns., days 1-7

Structure (SMILES): O=C1c2cccc3c([N+](=O)[O-])ccc(c23)C(=O)N1CCCCl [Compound 3f, 6-Nitro-2-[3-(Chloropropyl)]-1H-benz[de]isoquinoline-1,3-dione]
- late apoptotic cells (Annexin V^+/PI^+) (MOLT-4 cells [1]; 3 µg/ml): 1.05%
- total apoptotic cells (MOLT-4 cells [1]; 3 µg/ml): 7.43%
- late apoptotic cells (Annexin V^+/PI^+) (MOLT-4 cells [1]; 5 µg/ml): 4.82%
- total apoptotic cells (MOLT-4 cells [1]; 5 µg/ml): 18.44%
- early apoptotic cells (Annexin V^+/PI^-), LR (HL-60 cells; 5 µM): 16.4%
- late apoptotic cells (Annexin V^+/PI^+), UR (HL-60 cells; 5 µM): 31.5%
- total apoptotic cells (apoptotic cell population) (HL-60 cells; 5 µM): 47.9%
- early apoptotic cells (Annexin V^+/PI^-), LR (HL-60 cells; 10 µM): 11.5%
- late apoptotic cells (Annexin V^+/PI^+), UR (HL-60 cells; 10 µM): 81.0%
- total apoptotic cells (apoptotic cell population) (HL-60 cells; 10 µM): 92.5%
- inhibition at 8 µM (S-180 cells; Mus musculus, S-180, read-out: DNA synthesis inhibition (3H-thymidine uptake)): 90%
- RNA synthesis inhibition (3H-uridine uptake) (S-180 cells; S-180 cells, 8 µM, 1 hr incubation, with respect to control): 80%
- sub-G1 fraction (apoptotic) (MOLT-4 cells [2]; 1.5 µg/ml): 4.52%
- sub-G1 fraction (apoptotic) (MOLT-4 cells [2]; 5 µg/ml): 5.86%
- IC50 (HL-60 human leukemia): 300 nM
- apoptotic cells by light microscopy (MOLT-4 cells [3]; 1µM): no apoptotic cells were observed
- apoptotic cells by light microscopy (MOLT-4 cells [3]; 5µM, 24 - 48 hr): only a-few apoptotic cells were observed
- apoptotic cells by light microscopy (MOLT-4 cells [3]; 10µM, 36 hrs): seen in majority of cells
- MST [4]: 34.0 days
